{"source": "patent US20170021014A1", "about": "“VACCINE ADJUVANTS FOR CYTOMEGALOVIRUS PREVENTION AND TREATMENT” (THE JOHNS HOPKINS UNIVERSITY, priority 2015, published 2017)", "key": {"[1]": {"tested_on": "IFN-β mRNA", "test": "qRT-PCR of IFN-β mRNA in HFFs", "format": "cell-based, Human", "procedure": "Total RNA was isolated from cells using RNAeasy Mini kit (Qiagen, Georgetown, Md.) according to manufacturer's instructions. RevertAid first strand cDNA synthesis kit (Fermentas life sciences, Cromwell Park, Md.) was used to synthesize first strand cDNA from total RNA using oligo-dT primers. Negative reverse-transcriptase (−RT) reactions were included to ensure the specificity of qRT-PCR reactions. Synthesis of first strand cDNA from mRNA template was carried out at 42° C. for 1 h. Quantitative RT-PCR was performed using specific primers and SYBR green (Fermentas life science) with two-step cycling protocol (95° C. for 15 s, 60° C. for 1 min). All reactions were performed in triplicates and GAPDH was used as internal control. The expression level of the tested genes was normalized to the expression of GAPDH."}, "[2]": {"tested_on": "HCMV Towne", "test": "Plaque reduction assay in HFFs, HCMV Towne", "format": "cell-based, human cytomegalovirus", "procedure": "A plaque reduction assay was performed in HFFs to determine the effects of MDP treatment either before or after infection on virus replication. HFFs were seeded into 12-well plates (2×10^5 cells/well) and infected with Towne HCMV at approximately 100 plaques/well. After 90 minutes, media were aspirated, and DMEM containing 0.5% carboxymethyl-cellulose (CMC), 4% fetal bovine serum (FBS), and MDP at final concentration of 10 μg/mL were added into duplicate wells. In pretreatment experiments HFFs were first treated with MDP (10 μg/mL) for 72 h after which infection with the Towne or TB40 strains was carried out at approximately 100 plaques/well. After 90 minute adsorption, media were aspirated, and DMEM containing 0.5% CMC and 4% FBS were added into duplicate wells. After incubation at 37° C. for 8 days (Towne) or 10 days (TB40) the overlay was removed and plaques were counted after crystal violet staining."}, "[3]": {"tested_on": "TANK-binding kinase (TBK1)", "test": "Western blot of NOD2 downstream signaling proteins", "format": "cell-based, Human", "details": "HCMV-infected, MOI 0.1, MDP treatment, 36 hpi", "procedure": "(§1) Cell lysates containing equivalent amount of proteins were mixed with an equal volume of sample buffer (125 mM Tris-HCL, pH 6.8, 4% SDS, 20% glycerol and 5% β-mercaptoethanol) and boiled at 100° C. for 10 min. Denatured proteins were resolved in Tris-glycine polyacrylamide gels (10-12%) and transferred to polyvinylidine difluoride (PVDF) membranes (Bio-Rad Laboratories, Hercules, Calif.) by electroblotting. Membranes were incubated in blocking solution [5% w/v non-fat dry milk and 0.1% Tween-20 in PBS (PBST)] for 1 h, washed with PBST, and incubated with antibody at 4° C. overnight. Membranes were washed with PBST and incubated with horseradish peroxidase-conjugated secondary antibodies in PBST for 1 h at room temperature. Following washing with PBST, protein bands were visualized by chemiluminescence using SuperSignal West Dura and Pico reagents (Pierce Chemical, Rockford, Ill.). Antibodies for HCMV proteins were used at 1:2000 and included: mouse monoclonal anti-HCMV IE1 & IE2 (MAB810, Millipore, Billerica, Mass.), mouse monoclonal anti-HCMV UL83 (pp65, Vector Laboratories Inc., Burlingame, Calif.), and mouse monoclonal anti-pp52 (UL44, Santa Cruz Biotechnology, Santa Cruz, Calif.). […]"}, "[4]": {"tested_on": "HCMV proteins (IE1/2, pp65)", "test": "Western blot of HCMV proteins in infected HFFs", "format": "cell-based, human cytomegalovirus", "procedure": "as §1, with “Calif.). Rabbit polyclonal anti human-NOD2 antibody (H-300, 1:2000), rabbit polyclonal anti-RIPK2 (1:5000), mouse monoclonal anti-NF-KB (p65, 1:1000), rabbit polyclonal anti-IRF3 (1:1000) and mouse monoclonal anti-IRF7 (1:1000) were from Santa Cruz. Rabbit monoclonal anti-Histone H3 (1:2000), rabbit monoclonal anti-pERK1/2 (1:5000), mouse monoclonal anti-total ERK (1:2000), rabbit monoclonal anti-pIκBα (1:2000), mouse monoclonal anti-IκBα, rabbit monoclonal anti-pTBK1 (Ser172), and rabbit monoclonal anti-TBK1 (1:1000) were from Cell Signaling Technology, Beverly, Mass. Horseradish peroxidase (HRP)-conjugated anti-rabbit IgG was from Cell Signaling.” for “Calif.).”\nQuantitative analysis of proteins detected by immunoblotting was performed using ImageJ 1.48v software (NIH) by determining relative band intensities of individual bands. […]"}}}
{"smiles": "CC(=O)N[C@H]1C(O)O[C@H](CO)[C@@H](O)[C@@H]1O[C@H](C)C(=O)N[C@@H](C)C(=O)N[C@H](CCC(=O)O)C(N)=O", "note": "(mixture of isomers) [MDP, Muramyl dipeptide]", "values": [{"measurement": "increase in IFN-β mRNA", "setting": "[1]; HCMV-infected, MDP treatment, 4 hpi", "result": 2, "unit": "fold"}, {"measurement": "induction of IFN-β mRNA", "setting": "[1]; MDP after infection at MOI 0.1, 36 hpi (infection only 15-fold)", "result": 170, "unit": "fold"}, {"measurement": "induction of IFN-β mRNA", "setting": "[1]; MDP after infection at MOI 1, 36 hpi (infection only 300-fold)", "result": 800, "unit": "fold"}, {"measurement": "IFN-β expression induction", "setting": "[1]; MDP alone, compared to non-infected cells, 36 h", "result": 4, "unit": "fold"}, {"measurement": "IFN-β mRNA", "setting": "[1]; MDP pretreatment 72 h then HCMV MOI 1 for 24 h", "result": "significant induction"}, {"measurement": "IFN-β mRNA", "setting": "[1]; non-infected HFFs, MDP pretreatment 72 h", "result": "did not result in IFN-β induction"}, {"measurement": "plaque number", "setting": "[2]; MDP 10 μg/mL after infection, 100 PFU/well, counted after 8 days", "result": "reduced plaque number"}, {"measurement": "plaque number reduction", "setting": "[2]; MDP 10 μg/mL pretreatment 72 h, 100 PFU/well, 8 days", "result": "approximately 90%"}, {"measurement": "number of plaques", "setting": "[2]; control GIPZ cells, MDP pretreatment 72 h, day 8", "result": "significantly decreased"}, {"measurement": "virus replication (plaque number)", "setting": "[2]; shIFN-β cells, MDP pretreatment 72 h, day 8", "result": "failed to restrict virus replication"}, {"measurement": "phosphorylation of TBK1", "setting": "[3]", "result": "increased phosphorylation"}, {"measurement": "decrease in pp65 expression", "setting": "[4]; MDP treatment after infection, MOI 0.1, 96 hpi", "result": "approximately 75%"}, {"measurement": "reduction in pp65 expression", "setting": "[4]; MDP treatment after infection, higher MOI (MOI 1), 96 hpi", "result": 40, "unit": "%"}, {"measurement": "HCMV replication, dose response", "setting": "[4]; MOI 0.1, IE1/2 and pp65 expression after 4 days", "result": "suppressed HCMV replication (MOI 0.1) in a dose-dependent manner"}]}
